Reference: ChEMBL document CHEMBL1649466, “High-throughput screening identifies novel inhibitors of the acetyltransferase activity of Escherichia coli GlmU” (Antimicrob Agents Chemother, 2009)

How the values were obtained:
[1] = molecular target: Bifunctional protein GlmU (Escherichia coli (strain K12)) (UniProt P0ACC7); assay: Competitive inhibition of Acetyltransferase activity of Escherichia coli BL21(DE3) GlmU in presence of AcCoA
[2] = molecular target: Bifunctional protein GlmU (Escherichia coli (strain K12)) (UniProt P0ACC7); assay: Uncompetitive inhibition of Acetyltransferase activity of Escherichia coli BL21(DE3) GlmU in presence of GlcN-1P
[3] = molecular target: Bifunctional protein GlmU (Escherichia coli (strain K12)) (UniProt P0ACC7); assay: Uncompetitive inhibition of Acetyltransferase activity of Escherichia coli BL21(DE3) GlmU in presence of AcCoA

Chain of Bifunctional protein GlmU (Escherichia coli (strain K12)) (P0ACC7 whole entry, looked up): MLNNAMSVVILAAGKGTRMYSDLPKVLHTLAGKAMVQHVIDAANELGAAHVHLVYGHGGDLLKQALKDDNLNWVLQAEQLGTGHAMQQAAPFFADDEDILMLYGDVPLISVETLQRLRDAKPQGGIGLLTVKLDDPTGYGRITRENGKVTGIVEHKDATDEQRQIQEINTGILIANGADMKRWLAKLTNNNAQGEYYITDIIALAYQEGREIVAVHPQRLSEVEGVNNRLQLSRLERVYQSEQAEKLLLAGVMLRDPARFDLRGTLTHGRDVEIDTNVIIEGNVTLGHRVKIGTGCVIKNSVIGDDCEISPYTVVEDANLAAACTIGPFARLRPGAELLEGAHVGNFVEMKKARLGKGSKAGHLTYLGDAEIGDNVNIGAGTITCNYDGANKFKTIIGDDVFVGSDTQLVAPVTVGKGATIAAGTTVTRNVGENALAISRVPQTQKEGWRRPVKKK

Row | Kic [1] | Kiuc [2] | Kiuc [3] | Structure (SMILES)
1 | 17.2 nM | 189 nM |  | Nc1ccc(Nc2ccc(N)cc2S(=O)(=O)O)cc1
2 | 22.8 nM |  | 101 nM | O=C(CSc1nnc(SCC(=O)NCCSCc2ccco2)s1)NCCSCc1ccco1
3 | 404 nM | 1.11 ×10³ nM |  | O=S(=O)(Nc1ccc(S(=O)(=O)c2ccc(-c3ccc(S(=O)(=O)c4ccc(NS(=O)(=O)c5ccc(Cl)cc5)c(Cl)c4)cc3)cc2)cc1Cl)c1ccc(Cl)cc1
